Data reported in ChEMBL document CHEMBL6153102, “Rational Design, Synthesis, and Biological Evaluation of Novel c-Met Degraders for Lung Cancer Therapy” (J Med Chem, 2025).
Activity calls are given as the source filed them. No cut-off for these calls is given here.

Tests used:
[1] = molecular target: T1, Protein cereblon/Hepatocyte growth factor receptor (Homo sapiens, UniProt P08581+Q96SW2); experiment: PROTAC activity at c-Met/CRBN in human EBC-1 cells assessed as effect on SALL4 level at 15.6 nM incubated for 24 hrs by proteomics analysis; type: cell-based
Target sequence in this assay (P08581 25-1390 limits assumed): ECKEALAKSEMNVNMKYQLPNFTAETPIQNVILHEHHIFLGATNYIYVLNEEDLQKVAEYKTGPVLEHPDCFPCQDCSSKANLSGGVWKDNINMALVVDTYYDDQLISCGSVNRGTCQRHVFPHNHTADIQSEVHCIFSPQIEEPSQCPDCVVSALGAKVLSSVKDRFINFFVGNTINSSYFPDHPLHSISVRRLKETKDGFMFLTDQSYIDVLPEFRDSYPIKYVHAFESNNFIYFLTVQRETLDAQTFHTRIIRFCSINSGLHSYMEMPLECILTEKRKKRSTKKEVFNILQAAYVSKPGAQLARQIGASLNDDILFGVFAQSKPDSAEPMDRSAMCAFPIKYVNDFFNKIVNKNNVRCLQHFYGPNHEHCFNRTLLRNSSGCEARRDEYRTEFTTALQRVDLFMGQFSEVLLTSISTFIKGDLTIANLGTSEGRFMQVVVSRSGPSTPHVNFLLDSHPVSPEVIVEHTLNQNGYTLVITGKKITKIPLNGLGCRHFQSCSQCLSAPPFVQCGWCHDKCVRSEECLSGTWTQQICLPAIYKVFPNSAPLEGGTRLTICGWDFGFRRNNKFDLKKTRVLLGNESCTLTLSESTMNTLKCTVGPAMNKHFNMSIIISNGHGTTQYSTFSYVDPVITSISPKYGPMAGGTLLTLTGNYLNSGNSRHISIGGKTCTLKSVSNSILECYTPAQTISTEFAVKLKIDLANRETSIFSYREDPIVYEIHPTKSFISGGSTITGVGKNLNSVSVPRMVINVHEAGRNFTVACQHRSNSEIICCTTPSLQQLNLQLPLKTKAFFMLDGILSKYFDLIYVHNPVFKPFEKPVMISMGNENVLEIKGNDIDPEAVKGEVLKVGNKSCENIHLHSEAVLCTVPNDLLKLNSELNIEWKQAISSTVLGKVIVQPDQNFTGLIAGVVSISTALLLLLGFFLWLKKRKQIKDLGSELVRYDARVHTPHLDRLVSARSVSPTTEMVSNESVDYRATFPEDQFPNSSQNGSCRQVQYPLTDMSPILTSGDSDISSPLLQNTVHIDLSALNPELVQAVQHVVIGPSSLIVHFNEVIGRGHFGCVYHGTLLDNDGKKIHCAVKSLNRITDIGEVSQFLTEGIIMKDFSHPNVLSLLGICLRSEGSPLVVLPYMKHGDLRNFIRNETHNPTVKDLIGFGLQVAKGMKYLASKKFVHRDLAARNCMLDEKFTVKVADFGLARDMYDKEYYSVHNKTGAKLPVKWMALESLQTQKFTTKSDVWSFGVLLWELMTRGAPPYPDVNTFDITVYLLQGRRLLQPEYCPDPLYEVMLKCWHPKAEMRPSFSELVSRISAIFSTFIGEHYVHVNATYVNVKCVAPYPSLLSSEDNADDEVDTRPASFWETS
Target sequence in this assay (Q96SW2 whole entry partner): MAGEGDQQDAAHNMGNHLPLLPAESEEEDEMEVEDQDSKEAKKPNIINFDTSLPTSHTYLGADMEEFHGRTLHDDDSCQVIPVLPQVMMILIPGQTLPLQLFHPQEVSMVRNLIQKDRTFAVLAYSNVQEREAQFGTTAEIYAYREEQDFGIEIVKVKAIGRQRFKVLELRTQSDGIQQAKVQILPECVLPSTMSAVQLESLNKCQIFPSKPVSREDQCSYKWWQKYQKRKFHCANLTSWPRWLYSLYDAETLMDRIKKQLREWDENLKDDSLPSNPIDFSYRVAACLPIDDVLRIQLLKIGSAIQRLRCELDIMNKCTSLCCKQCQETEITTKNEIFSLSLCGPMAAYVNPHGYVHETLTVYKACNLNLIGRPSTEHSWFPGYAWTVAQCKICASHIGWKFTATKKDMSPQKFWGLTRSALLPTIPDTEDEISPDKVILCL

[2] = molecular target: T1, Protein cereblon/Hepatocyte growth factor receptor; experiment: PROTAC activity at c-Met/CRBN in human EBC-1 cells assessed as reduction in IFRD1 level at 15.6 nM incubated for 24 hrs by proteomics analysis; type: cell-based
Target sequence in this assay (P08581 25-1390 limits assumed): as the sequence (P08581 25-1390 limits assumed) above
Target sequence in this assay (Q96SW2 whole entry partner): as the sequence (Q96SW2 whole entry partner) above

[3] = molecular target: T1, Protein cereblon/Hepatocyte growth factor receptor; experiment: PROTAC activity at c-Met/CRBN in human EBC-1 cells assessed as reduction in HELLS level at 15.6 nM incubated for 24 hrs by proteomics analysis; type: cell-based
Target sequence in this assay (P08581 25-1390 limits assumed): as the sequence (P08581 25-1390 limits assumed) above
Target sequence in this assay (Q96SW2 whole entry partner): as the sequence (Q96SW2 whole entry partner) above

[4] = molecular target: T1, Protein cereblon/Hepatocyte growth factor receptor; experiment: PROTAC activity at c-Met/CRBN in human EBC-1 cells assessed as reduction in TPX2 level at 15.6 nM incubated for 24 hrs by proteomics analysis; type: cell-based
Target sequence in this assay (P08581 25-1390 limits assumed): as the sequence (P08581 25-1390 limits assumed) above
Target sequence in this assay (Q96SW2 whole entry partner): as the sequence (Q96SW2 whole entry partner) above

[5] = molecular target: T1, Protein cereblon/Hepatocyte growth factor receptor; experiment: PROTAC activity at c-Met/CRBN in human EBC-1 cells assessed as reduction in TXNDC9 level at 15.6 nM incubated for 24 hrs by proteomics analysis; type: cell-based
Target sequence in this assay (P08581 25-1390 limits assumed): as the sequence (P08581 25-1390 limits assumed) above
Target sequence in this assay (Q96SW2 whole entry partner): as the sequence (Q96SW2 whole entry partner) above

[6] = molecular target: T1, Protein cereblon/Hepatocyte growth factor receptor; experiment: PROTAC activity at c-Met/CRBN in human EBC-1 cells assessed as reduction in c-Met level at 15.6 nM incubated for 24 hrs by proteomics analysis; type: cell-based
Target sequence in this assay (P08581 25-1390 limits assumed): as the sequence (P08581 25-1390 limits assumed) above
Target sequence in this assay (Q96SW2 whole entry partner): as the sequence (Q96SW2 whole entry partner) above

[7] = molecular target: T1, Protein cereblon/Hepatocyte growth factor receptor; experiment: PROTAC activity at c-Met/CRBN in human EBC-1 cells assessed as induction of c-Met degradation at 100 nM incubated for 24 hrs by Western blotting analysis relative to control; type: cell-based
[8] = molecular target: T1, Protein cereblon/Hepatocyte growth factor receptor; experiment: PROTAC activity at c-Met/CRBN in human A549 cells assessed as induction of c-Met degradation incubated for 24 hrs by Western blotting analysis; type: cell-based
Target sequence in this assay (P08581 whole entry): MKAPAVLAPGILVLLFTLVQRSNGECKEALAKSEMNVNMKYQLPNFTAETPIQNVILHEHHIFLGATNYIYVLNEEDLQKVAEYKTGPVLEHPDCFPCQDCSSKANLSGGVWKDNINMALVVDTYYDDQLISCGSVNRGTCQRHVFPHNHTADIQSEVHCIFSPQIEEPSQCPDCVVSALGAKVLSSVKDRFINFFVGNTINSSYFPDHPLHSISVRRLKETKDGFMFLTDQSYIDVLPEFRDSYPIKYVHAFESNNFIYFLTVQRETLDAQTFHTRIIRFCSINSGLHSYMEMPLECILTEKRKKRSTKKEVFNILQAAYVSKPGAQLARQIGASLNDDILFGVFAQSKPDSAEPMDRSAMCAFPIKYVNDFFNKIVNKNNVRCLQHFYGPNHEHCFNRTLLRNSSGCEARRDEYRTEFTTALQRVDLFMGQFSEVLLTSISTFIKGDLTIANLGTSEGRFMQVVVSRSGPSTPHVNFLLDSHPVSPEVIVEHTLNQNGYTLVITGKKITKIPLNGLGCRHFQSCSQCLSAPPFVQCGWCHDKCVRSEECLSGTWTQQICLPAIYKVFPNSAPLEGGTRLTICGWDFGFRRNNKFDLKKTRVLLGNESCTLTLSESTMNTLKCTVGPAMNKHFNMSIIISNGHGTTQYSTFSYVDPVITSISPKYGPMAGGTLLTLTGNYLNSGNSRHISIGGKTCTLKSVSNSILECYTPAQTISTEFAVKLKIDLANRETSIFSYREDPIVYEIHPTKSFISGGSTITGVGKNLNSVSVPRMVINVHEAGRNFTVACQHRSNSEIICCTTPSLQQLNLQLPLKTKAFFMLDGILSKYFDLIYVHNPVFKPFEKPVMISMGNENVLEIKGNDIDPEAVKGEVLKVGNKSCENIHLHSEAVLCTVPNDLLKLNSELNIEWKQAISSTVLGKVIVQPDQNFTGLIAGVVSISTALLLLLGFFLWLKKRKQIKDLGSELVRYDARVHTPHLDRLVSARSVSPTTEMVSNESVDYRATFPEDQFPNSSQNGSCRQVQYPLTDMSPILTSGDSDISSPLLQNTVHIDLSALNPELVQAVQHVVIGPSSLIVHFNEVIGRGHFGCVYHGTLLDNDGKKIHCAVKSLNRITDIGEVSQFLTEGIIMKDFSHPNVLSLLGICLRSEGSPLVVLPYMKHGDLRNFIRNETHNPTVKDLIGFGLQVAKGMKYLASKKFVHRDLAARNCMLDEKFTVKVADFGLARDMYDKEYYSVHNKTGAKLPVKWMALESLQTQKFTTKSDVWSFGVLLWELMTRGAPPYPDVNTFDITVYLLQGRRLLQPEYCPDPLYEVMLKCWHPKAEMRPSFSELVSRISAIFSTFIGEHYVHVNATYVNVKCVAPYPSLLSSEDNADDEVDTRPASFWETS
Target sequence in this assay (Q96SW2 whole entry): as the sequence (Q96SW2 whole entry partner) above

[9] = molecular target: T1, Protein cereblon/Hepatocyte growth factor receptor; experiment: PROTAC activity at c-Met/CRBN in human HCT-116 cells assessed as induction of c-Met degradation incubated for 24 hrs by Western blotting analysis; type: cell-based
Target sequence in this assay (P08581 whole entry): as the sequence (P08581 whole entry) above
Target sequence in this assay (Q96SW2 whole entry): as the sequence (Q96SW2 whole entry partner) above

[10] = molecular target: T1, Protein cereblon/Hepatocyte growth factor receptor; experiment: PROTAC activity at c-Met/CRBN in human HCT-116 cells assessed as induction of c-Met degradation at 15.6 nM by Western blotting analysis; type: cell-based; details: time 72.0 hrs
[11] = molecular target: T1, Protein cereblon/Hepatocyte growth factor receptor; experiment: PROTAC activity at c-Met/CRBN in human EBC-1 cells assessed as reduction in c-Met level at 3.9 to 125 nM incubated for 24 hrs in presence of tepotinib by Western blot analysis; type: cell-based; details: dose 3.9-125 nM
EBC-1 [12] = experiment: Antiproliferative activity against human EBC-1 cells assessed as cell viability incubated for 72 hrs by MTT assay; type: functional, cell-based; details: EBC-1, 72 h
Hs746T = experiment: Antiproliferative activity against human Hs746T cells assessed as cell viability incubated for 72 hrs by MTT assay; type: functional, cell-based
A549 = experiment: Antiproliferative activity against human A549 cells assessed as cell viability incubated for 72 hrs by MTT assay; type: functional, cell-based; details: A549, 72 h
EBC-1 [13] = experiment: Inhibition of colony formation in human EBC-1 cells at 3.9 to 15.6 nM incubated for 7 days by crystal violet staining based analysis; type: functional, cell-based; details: dose 3.9-15.6 nM, time 7.0 day
EBC-1 [14] = experiment: Induction of apoptosis in human EBC-1 cells assessed as viable cells at 5 nM incubated for 24 hrs by Annexin V/FITC staining based flow cytometry analysis (reference value: 95.9%); type: functional; details: read-out: Activity
EBC-1 [15] = experiment: Induction of apoptosis in human EBC-1 cells assessed as early apoptotic cells at 5 nM incubated for 24 hrs by Annexin V/FITC staining based flow cytometry analysis (reference value: 2.11 %); type: functional
EBC-1 [16] = experiment: Induction of apoptosis in human EBC-1 cells assessed as late apoptotic cells at 5 nM incubated for 24 hrs by Annexin V/FITC staining based flow cytometry analysis (reference value: 1.65 %); type: functional
EBC-1 [17] = experiment: Induction of apoptosis in human EBC-1 cells assessed as viable cells at 15 nM incubated for 24 hrs by Annexin V/FITC staining based flow cytometry analysis (reference value: 95.9%); type: functional; details: read-out: Activity
EBC-1 [18] = experiment: Induction of apoptosis in human EBC-1 cells assessed as viable cells at 50 nM incubated for 24 hrs by Annexin V/FITC staining based flow cytometry analysis (reference value: 95.9%); type: functional; details: read-out: Activity
EBC-1 [19] = experiment: Induction of apoptosis in human EBC-1 cells assessed as early apoptotic cells at 15 nM incubated for 24 hrs by Annexin V/FITC staining based flow cytometry analysis (reference value: 2.11 %); type: functional
EBC-1 [20] = experiment: Induction of apoptosis in human EBC-1 cells assessed as late apoptotic cells at 15 nM incubated for 24 hrs by Annexin V/FITC staining based flow cytometry analysis (reference value: 1.65 %); type: functional
EBC-1 [21] = experiment: Induction of apoptosis in human EBC-1 cells assessed as upregulation of PARP level incubated for 24 hrs by Western blot analysis; type: functional, cell-based; details: dose 5-50 nM
EBC-1 [22] = experiment: Induction of apoptosis in human EBC-1 cells assessed as upregulation of cleaved caspase-3 level incubated for 24 hrs by Western blot analysis; type: functional, cell-based; details: dose 5-50 nM
[23] = Metabolic stability in rat liver microsome assessed as half life; type: ADME; details: liver microsomes
[24] = Metabolic stability in human liver microsome assessed as half life; type: ADME; details: liver microsomes
[25] = Metabolic stability in human liver microsome assessed as clearance; type: ADME; details: liver microsomes, read-out: CLH
[26] = Half life in Sprague-Dawley rat at 2 mg/kg, iv measured upto 24 hrs by LC-MS/MS analysis; type: ADME, organism-based; details: in vivo
[27] = Tmax in Sprague-Dawley rat at 2 mg/kg, iv measured upto 24 hrs by LC-MS/MS analysis; type: ADME, organism-based; details: in vivo
[28] = Volume of distribution at steady state in Sprague-Dawley rat at 2 mg/kg, iv measured upto 24 hrs by LC-MS/MS analysis; type: ADME, organism-based; details: in vivo
[29] = MRT (0 to t) in Sprague-Dawley rat at 5 mg/kg, ip measured upto 24 hrs by LC-MS/MS analysis; type: ADME, organism-based; details: in vivo
[30] = MRT (0 to infinity) in Sprague-Dawley rat at 5 mg/kg, ip measured upto 24 hrs by LC-MS/MS analysis; type: ADME, organism-based; details: in vivo
[31] = Bioavailability in Sprague-Dawley rat at 5 mg/kg, ip measured upto 24 hrs by LC-MS/MS analysis; type: ADME, organism-based; details: in vivo
[32] = Toxicity in BALB/c nude mouse assessed as body weight loss at 10 to 20 mg/kg, ip administered for 7 days; type: organism-based; details: in vivo, 168 h, dose 10-20 mg/kg, time 7 day
[33] = Toxicity in BALB/c nude mouse assessed as lung damage at 10 to 20 mg/kg, ip administered for 7 days by H and E staining based analysis; type: organism-based; details: in vivo, 168 h, dose 10-20 mg/kg, time 7 day
[34] = Toxicity in BALB/c nude mouse assessed as kidney damage at 10 to 20 mg/kg, ip administered for 7 days by H and E staining based analysis; type: organism-based; details: in vivo, 168 h, dose 10-20 mg/kg, time 7 day
EBC-1 [35] = experiment: PROTAC activity at c-Met […] mutant /CRBN in human EBC-1 cells assessed as induction of c-Met degradation incubated for 24 hrs by Western blotting analysis; type: cell-based; details: dose <= 1000.0 nM
[36] = molecular target: T1, Protein cereblon/Hepatocyte growth factor receptor; experiment: PROTAC activity at c-Met/CRBN in human A549 cells assessed as reduction in c-Met level incubated for 24 hrs by Western blotting analysis; type: cell-based
Target sequence in this assay (P08581 whole entry): as the sequence (P08581 whole entry) above
Target sequence in this assay (Q96SW2 whole entry): as the sequence (Q96SW2 whole entry partner) above

## COc1ccc(C(=O)N2CCC3(CCN(C(=O)CN4CCC(COc5cnc(-c6cccc(Cn7nc(-c8cccc(C#N)c8)ccc7=O)c6)nc5)CC4)CC3)CC2)cc1N1CCC(=O)NC1=O
[1]
  Activity: No effect
[2]
  Activity: Active
[3]
  Activity: Active
[4]
  Activity: Active
[5]
  Activity: Active
[6]
  Activity: Active
[7]
  Activity: 90.3%
[8]
  DC50: < 0.0156 µM
[9]
  DC50: < 0.0156 µM
[10]
  Activity: Time-dependent-effect
[11]
  Activity: inactive
EBC-1 [12]
  IC50: 0.004 µM
Hs746T
  IC50: 0.008 µM
A549
  IC50: 16 µM
EBC-1 [13]
  inhibition: Active
EBC-1 [14]
  viability at 0.005 µM: 66.4%
EBC-1 [15]
  Activity: 29.7%
EBC-1 [16]
  Activity: 3.43%
EBC-1 [17]
  viability at 0.015 µM: 65%
EBC-1 [18]
  viability at 0.05 µM: 62%
EBC-1 [19]
  Activity: 30.8%
EBC-1 [20]
  Activity: 3.66%
EBC-1 [21]
  Activity: Dose-dependent-effect
EBC-1 [22]
  Activity: Dose-dependent-effect
[23]
  half-life: 2.22 h
[24]
  half-life: 0.362 h
[25]
  CLint scaled: 3.46 L/h/kg
[26]
  t1/2: 6.9 h
[27]
  Tmax: 5.04 min
[28]
  Vdss: 36.26 L/kg
[29]
  MRT last at 24 h: 5.06 h
[30]
  MRT inf: 6 h
[31]
  bioavailability: 49.2%
[32]
  Activity: Non-toxic
[33]
  Activity: Non-toxic
[34]
  Activity: Non-toxic
EBC-1 [35]
  Activity: Dose-dependent-effect
[36]
  DC50: 0.0418 µM
